{
  "source": "patent EP0587374A2",
  "about": "“Sulfated sterol glycosides and their use against viral infections” (VIROSTAT (NA) NV, priority 1992, dated 1994)",
  "key": {"[1]": {"system": "feline immunodeficiency virus (FIV)", "test": "In vivo anti-FIV test in an experimentally infected cat: antibody titer, haematology, lymphocyte subsets", "conditions": "5 mg/kg s.c. weekly from week 10; for WBC: pre-treatment weeks 0/6: 11.8/13.2; for CD4⁺: pre-treatment weeks 0/6: 460/350; for CD8⁺: pre-treatment weeks 0/6: 1115/721; for CD3⁺: pre-treatment weeks 0/6: 1742/1219; for Lymph.: lymphocytes, pre-treatment weeks 0/6: 2600/2380", "protocol": "The substance was tested at a dosage rate of 5 mg/kg body mass on a cat infected with feline immunodeficiency virus, administered by subcutaneous injection at weekly intervals over a period of 13 weeks.\nA cat which had been experimentally infected with a strain of feline immunodeficiency virus (FIV) using the blood of a naturally infected cat was used for this experiment. […] The haematological and immunological parameters were monitored during the dosage period as described below.\nA specimen of blood was used to determine the antibody titer to FIV using a commercial kit (CITE Combo, Indexx Corporation, Portland). The serum was diluted with saline solution and each serum diulation was tested in order to determine the highest dilution yielding positive results. This dilution was subsequently used as the cut-off titer of positivity. The titer of antibodies was determined at regular intervals during the treatment period.\nWhole blood was diluted by 50% with RPMI medium and layered on to Histopaque (Sigma) and centrifuged at 200 gravities for 25 minutes. The cells at the interface were collected and washed three times with RPMI. These cells represented the mononuclear cells of the blood and were used for determining the percentage of T-cells and the subsets thereof as described hereunder.\nCells (1 x 10⁶) were incubated in test tubes with aliquots of monoclonal antibody reactive with CD3, CD4 and CD8 antigens. The mixtures of different antibodies were conducted as follows: CD3-FITC + CD4-PE CD3-FITC + CD8-PE\nThe tubes were incubated for 20 minutes at room temperature and following two washes with phosphate-buffered saline solution (PBS), the cells were fixed with 400 µℓ PBS containing 0.5% formaldehyde.\nCell fluoresence was assessed using a FACScan cytometer. […] The analysis was conducted using the LYSIS II software programme after having set a lymphocyte gate on the FSC versus SSC scattergram. All the results were expressed as percentage positive lymphocytes, i.e. cells which co-expressed CD3 and CD4 or CD3 and CD8 markers. In this way, CD4⁺ T cells, and in a similar fashion, CD8⁺ NK cells, were excluded from the CD3⁺ CD8⁺ T-suppressor cells.\nAbsolute cell numbers were calculated from basic haematology conducted on an aliquot of the whole blood. From the percentage lymphocyte differential counts, absolute values for positive cells could be calculated. This was conducted for all subsets analyzed."}, "[2]": {"conditions": "for Elimination half-life: open two-compartment model", "from_the_text": "Two test animals were used. […] Anaesthesia was maintained with halothane. […] Twenty-five blood samples (1.5 mℓ each) were drawn from each test animal at intervals appropriate to the pharmacokinetic modelling. […]"}, "[3]": {"system": "Feline Infectious Peritonitis Virus"}, "[4]": {"system": "HIV-1"}, "[5]": {"system": "blood clotting", "conditions": "50 µg/mℓ, prothrombin time in vitro", "protocol": "Prothrombin Time was measured according to standard techniques using CaCl₂, citrated-plasma and prothrombin."}, "[6]": {"system": "Peripheral blood lymphocytes", "test": "In vitro cytotoxicity, Trypan Blue exclusion after 3 days of culture", "conditions": "for % Viability: 3 days, means of 4 counts", "protocol": "Peripheral blood lymphocytes were prepared from normal blood. Cells were cultured for 3 days in complete medium [(RPMI, a commercially available so-called standard salt solution) + 10 % foetal calf serum (FCS) + […]] in the presence/absence of phytohemagglutinin (PHA). Duplicate wells were set up. Incubation was at 37°C and 5 % CO₂.\nOn the third day, cell viabilities were determined using the Trypan Blue exclusion test.\nThose products which were water soluble, were made up at 8 mg/mℓ stocks in sterile distilled water and diluted 1:10 in RPMI medium and again diluted 1:10 directly in the wells containing the cells in complete medium. The final concentrations were thus 80 µg/mℓ. For the lower dilutions, the 8 mg/mℓ stock was diluted 1:2 or 1:4 or 1:8 in water before being diluted in the RPMI medium.\nFor those products which were DMSO-soluble, the stocks were made'up at 8 mg/mℓ in 100 % DMSO. This stock was diluted 1:10 in 100 % FCS and diluted 1:10 directly in the wells containing the cells in RPMI medium only. The final concentrations were thus 10 % FCS and 1 % DMSO. For the lower dilutions, the 8 mg/mℓ stock was diluted 1:2 or 1:4 or 1:8 with DMSO before the FCS dilution step.\nThis stock was diluted in water to yield a working stock of 2 mg/mℓ. The 2 mg/ml stock was diluted 1:20 or 1:10 or 1:5 or 1:2.5 in water and again 1:10 in the wells to give the 10, 20, 40 or 80 µg/mℓ final concentrations respectively."}},
  "note": "“And” between values parts separate entries of the source, which are not always exact repeats. Equal values may be shown once. Read-outs that look alike come from different tables or passages of the source.",
  "data": [
    {"smiles": "CC[C@H](CC[C@@H](C)[C@H]1CC[C@H]2[C@@H]3CC=C4C[C@@H](O[C@@H]5O[C@H](COS(=O)(=O)O)[C@@H](OS(=O)(=O)O)[C@H](OS(=O)(=O)O)[C@H]5OS(=O)(=O)O)CC[C@]4(C)[C@H]3CC[C@]12C)C(C)C", "note": "[BSSG-(SO₄⁻)₄, β-Sitosteryl β-D-glucoside tetra-sulphate]", "values": [
      {"measurement": "WBC", "setting": "[1]; time 12 weeks", "value": 14.7, "unit": "x10⁹/ℓ"},
      {"measurement": "CD4⁺", "setting": "[1]; time 12 weeks", "value": 315, "unit": "µL"},
      {"measurement": "CD8⁺", "setting": "[1]; time 12 weeks", "value": 432, "unit": "µL"},
      {"measurement": "CD3⁺", "setting": "[1]; time 12 weeks", "value": 964, "unit": "µL"},
      {"measurement": "WBC", "setting": "[1]; time 17 weeks", "value": 14.0, "unit": "x10⁹/ℓ"},
      {"measurement": "CD4⁺", "setting": "[1]; time 17 weeks", "value": 763, "unit": "µL"},
      {"measurement": "CD8⁺", "setting": "[1]; time 17 weeks", "value": 1066, "unit": "µL"},
      {"measurement": "CD3⁺", "setting": "[1]; time 17 weeks", "value": 2035, "unit": "µL"},
      {"measurement": "WBC", "setting": "[1]; time 23 weeks", "value": 15.5, "unit": "x10⁹/ℓ"},
      {"measurement": "CD4⁺", "setting": "[1]; time 23 weeks", "value": 850, "unit": "µL"},
      {"measurement": "CD8⁺", "setting": "[1]; time 23 weeks", "value": 1610, "unit": "µL"},
      {"measurement": "CD3⁺", "setting": "[1]; time 23 weeks", "value": 2894, "unit": "µL"},
      {"measurement": "Lymph.", "setting": "[1]; time 12 weeks", "value": 2940, "unit": "µL"},
      {"measurement": "Lymph.", "setting": "[1]; time 17 weeks", "value": 3220, "unit": "µL"},
      {"measurement": "Lymph.", "setting": "[1]; time 23 weeks", "value": 3990, "unit": "µL"},
      {"measurement": "Elimination half-life", "setting": "[2]; High Dose (750 mg) i.v.", "value": 22, "unit": "h"},
      {"measurement": "Peak plasma concentration", "setting": "[2]; High Dose (750 mg), i.v. infusion 30 minutes, total dose 55.6 mg/kg", "value": 364, "unit": "µg/mL"},
      {"measurement": "Elimination half-life", "setting": "[2]; Low Dose (120 mg) i.v.", "value": 12, "unit": "h"},
      {"measurement": "Peak plasma concentration", "setting": "[2]; Low Dose (120 mg), i.v. infusion 15 minutes, total dose 7.14 mg/kg", "value": 102, "unit": "µg/mL"},
      {"measurement": "haemolysis in the blood samples", "setting": "[2]; baboon receiving the lower dose (120 mg i.v.)", "value": "no evidence of haemolysis"},
      {"measurement": "haemolysis in the blood samples", "setting": "[2]; high-dose test animal (750 mg i.v.)", "value": "macroscopic evidence of haemolysis"},
      {"measurement": "plasma elimination half-life", "setting": "[2]; i.v., range over the two doses (120 mg, 750 mg)", "value": "12 - 20 hours and 12 and 22 hours"},
      {"measurement": "haemodynamic effects", "setting": "[2]; intravenous administration, very high plasma concentrations", "value": "did not appear to be any deleterious haemodynamic effects"},
      {"measurement": "viral cytopathic effect", "setting": "[3]; 5, 12.5, 25 and 50 µg/mℓ, 10²-, […]", "value": "completely inhibited"},
      {"measurement": "cytopathic effect of the drug alone", "setting": "[3]; without virus", "value": "no cytopathic effect"},
      {"measurement": "inhibition of P24 protein synthesis", "setting": "[4]; 50 µg/mℓ, from a number of tests", "value": "80 - 100%"},
      {"measurement": "concentration that inhibits P24 protein synthesis by 50%", "setting": "[4]; by extrapolation of the data in Table 3 (4 days), may vary with lymphocyte batch and HIV-1 titre", "value": 9, "unit": "µg/mL"},
      {"measurement": "anti-HIV-1 effect (in words)", "setting": "[4]; in terms of P24 protein production, Tables 1-3", "value": "marked anti-HIV-1 effects"},
      {"measurement": "% INHIBITION OF P24 PROTEIN PRODUCTION", "setting": "[4]; test concentration 0.78 µg/mℓ, duration 4 days", "value": 4, "unit": "%"},
      {"measurement": "% INHIBITION OF P24 PROTEIN PRODUCTION", "setting": "[4]; test concentration 3.125 µg/mℓ, duration 4 days", "value": 27, "unit": "%"},
      {"measurement": "% INHIBITION OF P24 PROTEIN PRODUCTION", "setting": "[4]; test concentration 10 µg/mℓ, duration 6 days", "value": 55, "unit": "%"},
      {"measurement": "% INHIBITION OF P24 PROTEIN PRODUCTION", "setting": "[4]; test concentration 12.5 µg/mℓ, duration 4 days", "value": 65, "unit": "%"},
      {"measurement": "% INHIBITION OF P24 PROTEIN PRODUCTION", "setting": "[4]; test concentration 25 µg/mℓ, duration 4 days", "value": "61% and 88%"},
      {"measurement": "% INHIBITION OF P24 PROTEIN PRODUCTION", "setting": "[4]; test concentration 25 µg/mℓ, duration 6 days", "value": 91, "unit": "%"},
      {"measurement": "% INHIBITION OF P24 PROTEIN PRODUCTION", "setting": "[4]; test concentration 50 µg/mℓ, duration 4 days", "value": "83% and 96%"},
      {"measurement": "% INHIBITION OF P24 PROTEIN PRODUCTION", "setting": "[4]; test concentration 50 µg/mℓ, duration 6 days", "value": 100, "unit": "%"},
      {"measurement": "% INHIBITION OF P24 PROTEIN PRODUCTION", "setting": "[4]; test concentration 100 µg/mℓ, duration 4 days", "value": 99, "unit": "%"},
      {"measurement": "effect on blood clotting", "setting": "[5]", "value": "did not affect blood clotting"},
      {"measurement": "% Viability", "setting": "[6]; Cells + PHA + 10 µg/mℓ", "value": 80, "unit": "%"},
      {"measurement": "% Viability", "setting": "[6]; Cells + PHA + 20 µg/mℓ", "value": 85, "unit": "%"},
      {"measurement": "% Viability", "setting": "[6]; Cells + PHA + 40 µg/mℓ", "value": 82, "unit": "%"},
      {"measurement": "% Viability", "setting": "[6]; Cells + PHA + 80 µg/mℓ", "value": 83, "unit": "%"},
      {"measurement": "viability of test cells, trend with concentration", "setting": "[6]; from 10 to 80 µg/mℓ", "value": "no tendency to toxicity"}
    ]}
  ]
}
